Laboratory results from ChEMBL document CHEMBL5143563, “Discovery of DS-3801b, a non-macrolide GPR38 agonist with N-methylanilide structure” (Bioorg Med Chem Lett, 2022).

How the values were obtained:
[1] = Effective permeability of the compound at pH 7.4 by PAMPA assay; assay type: ADME; settings: read-out: Peff
[2] = Agonist activity at rabbit GPR38 expressed in COS-7 cells; assay type: cell-based; settings: Oryctolagus cuniculus
[3] = Effective permeability of the compound at pH 5 by PAMPA assay; assay type: ADME; settings: read-out: Peff
Motilin receptor [4] = target: T1, Motilin receptor (Homo sapiens, UniProt O43193); assay: Agonist activity at human GPR38 expressed in COS-7 cells; assay type: functional, cell-based
CYP2C9 = CYP2C9 (Homo sapiens, UniProt P11712); assay: Inhibition of CYP2C9 (unknown origin) at 10 uM; assay type: ADME
CYP1A2 = target: T2, CYP1A2 (Homo sapiens, UniProt P05177); assay: Inhibition of CYP1A2 (unknown origin) at 10 uM; assay type: ADME
T2 sequence (P05177 whole entry): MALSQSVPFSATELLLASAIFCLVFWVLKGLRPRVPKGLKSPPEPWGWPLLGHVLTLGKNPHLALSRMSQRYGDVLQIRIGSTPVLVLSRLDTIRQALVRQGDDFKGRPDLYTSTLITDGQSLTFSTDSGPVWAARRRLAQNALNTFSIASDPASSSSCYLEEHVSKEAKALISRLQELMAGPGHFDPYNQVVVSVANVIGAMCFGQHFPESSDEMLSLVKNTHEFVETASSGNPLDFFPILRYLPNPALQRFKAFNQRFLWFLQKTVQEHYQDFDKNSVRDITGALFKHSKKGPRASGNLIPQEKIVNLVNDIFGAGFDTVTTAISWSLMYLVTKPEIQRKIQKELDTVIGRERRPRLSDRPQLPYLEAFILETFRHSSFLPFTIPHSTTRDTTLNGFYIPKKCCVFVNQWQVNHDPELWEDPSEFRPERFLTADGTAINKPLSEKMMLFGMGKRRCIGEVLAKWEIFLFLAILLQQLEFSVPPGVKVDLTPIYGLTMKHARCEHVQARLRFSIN

CYP2D6 = CYP2D6 (Homo sapiens, UniProt P10635); assay: Inhibition of CYP2D6 (unknown origin) at 10 uM; assay type: ADME
CYP3A4 [5] = target: T3, CYP3A4 (Homo sapiens, UniProt P08684); assay: Inhibition of CYP3A4 (unknown origin) at 10 uM; assay type: ADME
[6] = Protein binding in human; assay type: ADME; settings: read-out: PB (converted)
CYP3A4 [7] = target: T3, CYP3A4; assay: Inhibition of CYP3A4 in human liver microsomes assessed as remaining activity; assay type: ADME, Microsome; set-up: concentration or dose not given beside the values
[8] = Protein binding in rabbit; assay type: ADME, Oryctolagus cuniculus; settings: read-out: PB (converted)
[9] = Lipophilicity, logD of the compound at pH 7.4; settings: buffer
Oryctolagus cuniculus = species on record: Oryctolagus cuniculus; assay: Potency index, ratio of GSK962040 EC50 to test compound EC50 for Ex vivo agonist activity at GPR38 in rabbit duodenum muscle tissue; assay type: tissue-based
[10] = Ex vivo agonist activity at GPR38 in rabbit duodenum muscle tissue assessed as intestinal contractile activity; assay type: tissue-based, Oryctolagus cuniculus
Motilin receptor [11] = target: T1, Motilin receptor; assay: Potency index, ratio of GSK962040 EC50 to test compound EC50 for human GPR38 expressed in COS-7 cells; assay type: functional, cell-based

T3 sequence (P08684 whole entry): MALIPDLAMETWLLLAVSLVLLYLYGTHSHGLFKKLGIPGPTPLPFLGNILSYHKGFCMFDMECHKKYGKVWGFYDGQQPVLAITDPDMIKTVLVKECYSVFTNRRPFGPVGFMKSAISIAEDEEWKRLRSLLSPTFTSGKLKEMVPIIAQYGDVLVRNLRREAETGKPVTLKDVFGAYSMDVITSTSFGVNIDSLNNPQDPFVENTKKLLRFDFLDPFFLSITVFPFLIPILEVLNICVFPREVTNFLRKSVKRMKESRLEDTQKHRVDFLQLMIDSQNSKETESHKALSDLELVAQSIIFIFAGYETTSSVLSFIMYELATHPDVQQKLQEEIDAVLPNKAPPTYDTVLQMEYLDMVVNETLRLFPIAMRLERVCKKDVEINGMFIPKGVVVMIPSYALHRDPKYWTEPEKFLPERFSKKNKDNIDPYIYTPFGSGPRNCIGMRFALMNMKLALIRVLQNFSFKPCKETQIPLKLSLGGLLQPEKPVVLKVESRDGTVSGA
T1 sequence (O43193 whole entry): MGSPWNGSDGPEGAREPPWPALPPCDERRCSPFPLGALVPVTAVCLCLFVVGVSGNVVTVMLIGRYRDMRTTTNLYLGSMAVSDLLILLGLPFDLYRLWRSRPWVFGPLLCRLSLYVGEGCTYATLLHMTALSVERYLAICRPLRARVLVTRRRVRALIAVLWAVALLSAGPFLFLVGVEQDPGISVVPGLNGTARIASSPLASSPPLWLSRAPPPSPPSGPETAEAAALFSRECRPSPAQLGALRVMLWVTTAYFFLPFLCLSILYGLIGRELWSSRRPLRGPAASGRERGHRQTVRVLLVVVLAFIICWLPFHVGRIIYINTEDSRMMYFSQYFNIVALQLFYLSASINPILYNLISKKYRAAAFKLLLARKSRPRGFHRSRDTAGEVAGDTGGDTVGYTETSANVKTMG
Sequence of CYP2C9 (P11712 whole entry): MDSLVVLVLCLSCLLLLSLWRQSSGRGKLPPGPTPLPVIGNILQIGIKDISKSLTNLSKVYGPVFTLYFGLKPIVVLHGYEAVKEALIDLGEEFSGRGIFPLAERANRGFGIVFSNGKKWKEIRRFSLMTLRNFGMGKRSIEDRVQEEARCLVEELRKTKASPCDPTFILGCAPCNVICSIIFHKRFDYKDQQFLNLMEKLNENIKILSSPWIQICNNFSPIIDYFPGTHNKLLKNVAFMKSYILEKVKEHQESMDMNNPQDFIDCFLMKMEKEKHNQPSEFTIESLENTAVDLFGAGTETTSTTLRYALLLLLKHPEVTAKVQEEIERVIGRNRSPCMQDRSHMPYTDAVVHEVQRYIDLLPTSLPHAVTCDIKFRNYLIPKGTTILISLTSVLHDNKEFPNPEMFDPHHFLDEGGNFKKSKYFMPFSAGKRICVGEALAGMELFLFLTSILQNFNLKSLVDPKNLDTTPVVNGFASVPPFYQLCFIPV
Sequence of CYP2D6 (P10635 whole entry): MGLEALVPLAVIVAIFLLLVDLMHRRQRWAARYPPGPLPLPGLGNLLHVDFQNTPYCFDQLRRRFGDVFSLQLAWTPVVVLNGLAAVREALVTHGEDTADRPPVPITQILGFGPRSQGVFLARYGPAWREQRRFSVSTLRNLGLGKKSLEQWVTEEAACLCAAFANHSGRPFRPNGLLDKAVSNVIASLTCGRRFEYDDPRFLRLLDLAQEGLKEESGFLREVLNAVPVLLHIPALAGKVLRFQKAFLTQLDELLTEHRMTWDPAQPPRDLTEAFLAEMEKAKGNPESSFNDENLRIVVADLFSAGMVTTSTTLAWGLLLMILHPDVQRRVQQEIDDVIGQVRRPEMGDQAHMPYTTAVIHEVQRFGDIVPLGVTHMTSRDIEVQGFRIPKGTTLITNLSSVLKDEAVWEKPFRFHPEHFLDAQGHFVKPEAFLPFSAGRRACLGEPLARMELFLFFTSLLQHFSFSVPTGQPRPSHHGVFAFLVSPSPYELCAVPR

SMILES	EC50 [2] [nM]	EC50 (Motilin receptor [4]) [nM]	activity (CYP3A4 [7]) [%]	logD [9]	also measured
Cc1cc(N(C)C(=O)[C@H]2CC[C@H](Oc3cccc(CO)c3)CC2)ccc1CN1CCN[C@@H](C)C1	1.3	5.3	74	1.3	Papp [1]: 48 ×10⁻⁶ cm/s; Papp [3]: 1.5 ×10⁻⁶ cm/s; inhibition at 10 µM (CYP2C9): 5.3%; inhibition at 10 µM (CYP1A2): 13%; inhibition at 10 µM (CYP2D6): 8.8%; inhibition at 10 µM (CYP3A4 [5]): 3.1%; fraction unbound [6]: 0.228; fraction unbound [8]: 0.335; Ratio EC50 (Oryctolagus cuniculus): 11; EC50 [10]: 7.3 nM
Cc1cc(N(C)C(=O)[C@H]2CC[C@H](Oc3ccc(F)c(CO)c3)CC2)ccc1CN1CCN[C@@H](C)C1	0.62	7.5	54	1.6	
CCOCc1cccc(N[C@H]2CC[C@H](C(=O)N(C)c3ccc(CN4CCN[C@@H](C)C4)c(C)c3)CC2)c1		2.6	61	2.5	
C[C@H]1CN(Cc2ccc(-c3cccnc3N3CCC(Nc4cccc(F)c4)CC3)cc2)CCN1	1.7	18			
C[C@H]1CN(Cc2ccc(NC(=O)[C@H]3CC[C@H](Oc4ccc(F)cc4)CC3)cc2)CCN1	> 10000	> 10000			
Cc1cc(N(C)C(=O)[C@H]2CC[C@H](Oc3cc(CO)ccc3C)CC2)ccc1CN1CCN[C@@H](C)C1	1	5.6	54		
CC[C@H]1CN(Cc2ccc(N(C)C(=O)[C@H]3CC[C@H](Oc4ccnc(C#N)c4)CC3)cc2C)CCN1	1.2	11	68	1	EC50 [10]: 4.8 nM
C[C@H]1CN(Cc2ccc(N(C)C(=O)[C@H]3CC[C@H](Oc4ccc(F)cc4)CC3)cc2)CCN1	2.6	55	44		EC50 [10]: 28 nM
C[C@@H]1CN(Cc2ccc(-c3cccnc3C(=O)N3CCC(Cc4ccc(F)cc4)CC3)cc2)C[C@H](C)N1	3.8	51			Ratio EC50 (Motilin receptor [11]): 20
Cc1cc(N(C)C(=O)[C@H]2CC[C@H](Oc3cccc(CC(=O)NC(C)C)c3)CC2)ccc1CN1CCN[C@@H](C)C1	0.26	1.6	68	1.8	
CC[C@H](C)[C@H](NC(=O)[C@@H]1CCCN1C(=O)[C@@H](NC(=O)[C@@H](N)Cc1ccccc1)C(C)C)C(=O)N[C@@H](Cc1ccccc1)C(=O)N[C@H](C(=O)N[C@@H](Cc1ccc(O)cc1)C(=O)NCC(=O)N[C@@H](CCC(=O)O)C(=O)N[C@@H](CC(C)C)C(=O)N[C@@H](CCC(N)=O)C(=O)N[C@@H](CCCNC(=N)N)C(=O)N[C@@H](CCSC)C(=O)N[C@@H](CCC(N)=O)C(=O)N[C@@H](CCC(=O)O)C(=O)N[C@@H](CCCCN)C(=O)N[C@@H](CCC(=O)O)C(=O)N[C@@H](CCCNC(=N)N)C(=O)N[C@@H](CC(N)=O)C(=O)N[C@@H](CCCCN)C(=O)NCC(=O)N[C@@H](CCC(N)=O)C(=O)O)[C@@H](C)O	0.16	0.97			EC50 [10]: 0.23 nM
Cc1cc(N(C)C(=O)[C@H]2CC[C@H](Oc3ccc(F)cc3)CC2)ccc1CN1CCNCC1	1.3	46	82		
CC[C@H]1CN(Cc2ccc(N(C)C(=O)[C@H]3CC[C@H](Oc4ccc(F)cc4)CC3)cc2C)CCN1		350	29		
Cc1cc(N(C)C(=O)[C@H]2CC[C@H](Oc3ccc(F)cn3)CC2)ccc1CN1CCN[C@@H](C)C1	0.26	4.6	47	1.9	
Cc1cc(N(C)C(=O)[C@H]2CC[C@H](Oc3ccc(Cl)c(CO)c3)CC2)ccc1CN1CCN[C@@H](C)C1	0.13	1.8	56		
C[C@H]1CN(Cc2ccc(N(C)C(=O)[C@H]3CC[C@H](Oc4ccc(F)cc4)CC3)cc2Cl)CCN1	0.18	2	23		
Cc1cc(N(C)C(=O)[C@H]2CC[C@H](Oc3cccc(C(=O)O)c3)CC2)ccc1CN1CCN[C@@H](C)C1	1300	> 10000	101	-0.4	
Cc1cc(N(C)C(=O)[C@H]2CC[C@H](Oc3cccc(CC(C)(C)O)c3)CC2)ccc1CN1CCN[C@@H](C)C1	1.1	4.3	50	2	
Cc1cc(N(C)C(=O)[C@H]2CC[C@H](Oc3cccc(CCO)c3)CC2)ccc1CN1CCN[C@@H](C)C1	0.51	4.7	60	1.3	
C[C@H]1CN(Cc2ccc(CC(=O)N3CCC(Nc4cccc(F)c4)CC3)cc2)CCN1 [CAMICINAL]	42	970			EC50 [10]: 82.6 nM
Cc1cc(CN2CCN[C@@H](C)C2)ccc1N(C)C(=O)[C@H]1CC[C@H](Oc2ccc(F)cc2)CC1		240	40		
Cc1cc(N(C)C(=O)[C@H]2CC[C@H](Oc3ccc(F)cc3)CC2)ccc1CN1CCN[C@@H](C)C1	0.21	2.1	32	2.5	
